For data set [1] the following is noted: in DMSO; cited from earlier work.
The nature of data set [2]: Photophysical characterization: absorption maxima and extinction coefficients (Lambda 2-spectrometer). Type of data set: physicochemical. The conditions noted are these: formulation with Gd-complex perfluoroalkyl derivative (WO 97/26017 Ex. 33). How it is done: (§1) The determination of the absorption maxima and extinction coefficients was carried out with a Lambda 2-spectrometer (Perkin-Elmer Company). The fluorescence properties were determined on a SPEX-fluorolog (Instruments S. A. Company, photomultiplier Hamamatsu PM928, excitation 350W xenon lamp). the determination of the fluorescence quantum yield was carried out relative to indocyanine green (O=13% in DMSO) by excitation at 585 nm (dyes with p=2) or 685 nm (dyes with p=3), in each case of solutions of concentration 2 μM in dye, and correction with the spectral sensitivity of lamp and detector.

Data set [3] is described as follows: Photophysical characterization: fluorescence properties and fluorescence quantum yield (SPEX-fluorolog, relative to indocyanine green). The data set is classed as physicochemical. The conditions noted are these: formulation with Gd-complex perfluoroalkyl derivative (WO 97/26017 Ex. 33); for Fluorescence quantum yield: 2 μM in dye. How it is done: as §1
Setting [4] is: dyes 7-14 table, 5 mol % of dye.

Each structure is given as a SMILES string. Counter-ions that a name gives are not always drawn.

For `CC1(C)C(/C=C/C=C/C=C/C=C2\N(CCCCS(=O)(=O)O)c3ccc4ccccc4c3C2(C)C)=[N+](CCCCS(=O)(=O)[O-])c2ccc3ccccc3c21` [indocyanine green], the “fluorescence quantum yield (reference standard)” value in data set [1] is given as 13%.
`CCN1C(=CC=CC=CC2=[N+](CCCCS(=O)(=O)[O-])c3ccc(C(=O)NCCOCCC(F)(F)C(F)(F)C(F)(F)C(F)(F)C(F)(F)C(F)(F)C(F)(F)C(F)(F)F)cc3C2(C)C)C(C)(C)c2ccccc21` [Dye 11, 2-[5-(1-Ethyl)-1,3-dihydro-3,3-dimethyl-2H-indol-2-ylidene)-1,3-pentatrienyl]-5-{N-[2-(3,3,4,4,5,5,6,6,7,7,8,8,9,9,10,10,10-heptadecafluorodecyloxy)ethyl]-aminocarbonyl}-3,3-dimethyl-1-(4-sulfobutyl)-3H-indolium, internal salt, sodium salt]: in data set [2] (setting [4]), the Absorption max. was 653 nm and the Extinction coefficient is 145,000 L mol^−1 cm^−1. In data set [3] (setting [4]), this compound returned a Fluorescence max. of 683 nm and a Fluorescence quantum yield of 0.14.
Taken in the same sequence, the figures for `CCN1C(=CC=CC=CC2=[N+](CCCCS(=O)(=O)[O-])c3ccc(C(=O)N(CCOCCC(F)(F)C(F)(F)C(F)(F)C(F)(F)C(F)(F)C(F)(F)C(F)(F)C(F)(F)F)CC(O)CO)cc3C2(C)C)C(C)(C)c2ccccc21` (stereo not shown) [Dye 13, 2-[5-(1-ethyl)-1,3-dihydro-3,3-dimethyl-2H-indol-2-ylidene)-1,3-pentatrienyl]-5-{N-[2-(3,3,4,4,5,5,6,6,7,7,8,8,9,9,10,10,10-heptadecafluorodecyloxy)ethyl]-N-(2,3-dihydroxypropyl)aminocarbonyl}-3,3-dimethyl-1-(4-sulfobutyl)-3H-indolium, internal salt, sodium salt] were 650 nm, 150,700 L mol^−1 cm^−1, 684 nm and 0.16.
With `CC1(C)C(=CC=CC=CC2=[N+](CCCCS(=O)(=O)[O-])c3ccc(C(=O)N(CCOCCC(F)(F)C(F)(F)C(F)(F)C(F)(F)C(F)(F)C(F)(F)C(F)(F)C(F)(F)F)CC(O)CO)cc3C2(C)C)N(CCCCS(=O)(=O)[O-])c2ccccc21.[Na+]` (stereo not shown) [Dye 9, 5-{N-[2-(3,3,4,4,5,5,6,6,7,7,8,8,9,9,10,10,10-heptadecafluorodecyloxy)ethyl]-N-(2,3-dihydroxypropyl)aminocarbonyl}-2-{7-[1,3-dihydro-3,3-dimethyl-1-(4-sulfobutyl)-2H-indol-2-ylidene]-1,3-pentadienyl}-3,3-dimethyl-1-(4-sulfobutyl)-3H-indolium, internal salt, sodium salt], the Absorption max. is 651 nm in data set [2] (setting [4]); 652 nm in data set [2] (1 mol % of dye); 651 nm in data set [2] (2 mol % of dye); 651 nm in data set [2] (5 mol % of dye); 649 nm in data set [2] (10 mol % of dye). In addition, the Extinction coefficient is 123,700 L mol^−1 cm^−1 in data set [2] (setting [4]); 132,000 L mol^−1 cm^−1 in data set [2] (1 mol % of dye); 130,200 L mol^−1 cm^−1 in data set [2] (2 mol % of dye); 123,700 L mol^−1 cm^−1 in data set [2] (5 mol % of dye); 110,900 L mol^−1 cm^−1 in data set [2] (10 mol % of dye). The Fluorescence max. in data set [3] (setting [4]) is listed as 685 nm; in data set [3] (1 mol % of dye), 681 nm; in data set [3] (2 mol % of dye), 683 nm; in data set [3] (5 mol % of dye), 685 nm; in data set [3] (10 mol % of dye), 685 nm. Besides, the Fluorescence quantum yield was determined as 0.12 in data set [3] (setting [4]); 0.17 in data set [3] (1 mol % of dye); 0.18 in data set [3] (2 mol % of dye); 0.12 in data set [3] (5 mol % of dye); 0.04 in data set [3] (10 mol % of dye).
As for `CCN1C(=CC=CC=CC=CC2=[N+](CCCCS(=O)(=O)[O-])c3ccc(C(=O)NCCOCCC(F)(F)C(F)(F)C(F)(F)C(F)(F)C(F)(F)C(F)(F)C(F)(F)C(F)(F)F)cc3C2(C)C)C(C)(C)c2ccccc21` [Dye 12, 2-[5-(1-ethyl)-1,3-dihydro-3,3-dimethyl-2H-indol-2-ylidene)-1,3,5-heptatrienyl]-5-{N-[2-(3,3,4,4,5,5,6,6,7,7,8,8,9,9,10,10,10-heptadecafluorodecyloxy)-ethyl]-aminocarbonyl}-3,3-dimethyl-1-(4-sulfobutyl)-3H-indolium, internal salt, sodium salt], in data set [2] (setting [4]), the Absorption max. is on record as 754 nm and the Extinction coefficient was 118,800 L mol^−1 cm^−1. In data set [3] (setting [4]), this compound yielded a Fluorescence max. of 788 nm and a Fluorescence quantum yield of 0.13.
Take `CCN1C(=CC=CC=CC=CC2=[N+](CCCCS(=O)(=O)[O-])c3ccc(C(=O)N(CCOCCC(F)(F)C(F)(F)C(F)(F)C(F)(F)C(F)(F)C(F)(F)C(F)(F)C(F)(F)F)CC(O)CO)cc3C2(C)C)C(C)(C)c2ccccc21` (stereo not shown) [Dye 14, 2-[5-(1-ethyl)-1,3-dihydro-3,3-dimethyl-2H-indol-2-ylidene)-1,3,5-heptatrienyl]-5-{N-[2-(3,3,4,4,5,5,6,6,7,7,8,8,9,9,10,10,10-heptadecafluorodecyloxy)-ethyl]-N-(2,3-dihydroxypropyl)aminocarbonyl}-3,3-dimethyl-1-(4-sulfobutyl)-3H-indolium, internal salt, sodium salt]: in data set [2] (setting [4]), the Absorption max. was 753 nm and the Extinction coefficient is recorded as 124,100 L mol^−1 cm^−1. For the same compound, in data set [3] (setting [4]), the Fluorescence max. is listed as 789 nm and the Fluorescence quantum yield was 0.09.

Source of the values: US6447749B1, “Perfluoro-alkyl containing dye molecules and galencial formulations” (Schering Aktiengesellschaft, priority 1999, dated 2002).
